Molecular target: T1, rabbit ALOX15 (Oryctolagus cuniculus, UniProt P12530)
T1 sequence (P12530 1-663): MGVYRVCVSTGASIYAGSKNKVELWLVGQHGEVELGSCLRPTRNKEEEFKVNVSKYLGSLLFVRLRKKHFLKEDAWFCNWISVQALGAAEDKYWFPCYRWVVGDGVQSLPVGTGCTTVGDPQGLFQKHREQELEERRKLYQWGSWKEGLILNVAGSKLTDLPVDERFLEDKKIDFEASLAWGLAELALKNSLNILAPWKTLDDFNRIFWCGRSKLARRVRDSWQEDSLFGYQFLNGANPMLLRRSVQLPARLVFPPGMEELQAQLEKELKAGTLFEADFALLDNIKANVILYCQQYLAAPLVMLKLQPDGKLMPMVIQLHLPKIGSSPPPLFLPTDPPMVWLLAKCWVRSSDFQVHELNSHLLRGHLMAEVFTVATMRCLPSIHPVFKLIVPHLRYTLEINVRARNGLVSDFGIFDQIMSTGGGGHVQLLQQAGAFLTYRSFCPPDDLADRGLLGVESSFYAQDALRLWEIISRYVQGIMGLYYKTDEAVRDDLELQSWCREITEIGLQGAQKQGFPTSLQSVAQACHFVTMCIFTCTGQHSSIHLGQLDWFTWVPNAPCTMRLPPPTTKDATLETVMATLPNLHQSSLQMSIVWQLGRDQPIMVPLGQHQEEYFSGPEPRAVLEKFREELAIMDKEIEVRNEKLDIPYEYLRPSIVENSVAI
Assay: Kinetic measurements of LA/AA oxygenation with inhibitor
Format: biochemical
Details: best fit of kinetic data

Which results are given for `CCCCCCCCOC(=O)NS(=O)(=O)Nc1ccc(-c2cc3ccccc3[nH]2)cc1OC` [compound 3, Octyl (N-(4-(1H-indol-2-yl)-2-methoxyphenyl)sulfamoyl)-carbamate]?
mode of inhibition of AA oxygenation (AA as substrate): uncompetitive mode of inhibition; mode of inhibition of LA oxygenation (LA as substrate): uncompetitive mode of inhibition

— paper PMC12415691 (RSC Advances, 2025)
